Numbered stars: 1 amine (or outer) side, 2 acyl side, 3 side chain; on linkers, the order of the positions; unused ones are H or OH. Bridge positions count the residues as written; N and C are the ends. Square brackets hold non-standard residues; d marks the D form. Side chains are listed from the residue outwards. Peptide text beside a SMILES is read from it. * marks the point of attachment. ξ: configuration not given here. X1 = O=C(O)CN1CCN(CC(=O)O)CCN(CC(=O)NCCCC[C@@H](NC(=O)CCOCCOCCOCCOCCOCCOCCOCCOCCOCCOCCOCCOCCNC(=O)Cc2ccc(Br)cc2)C(=O)NCCOCCOCCOCCOCCOCCOCCOCCOCC(=O)*)CCN(CC(=O)O)CC1; PEG24 = NCCOCCOCCOCCOCCOCCOCCOCCOCCOCCOCCOCCOCCOCCOCCOCCOCCOCCOCCOCCOCCOCCOCCOCCOCCC(=O)O; Ala(piperidin-4-yl) = O=C([C@H](CC1CCN([*:3])CC1)N[*:1])[*:2]; DOTA = O=C(O)CN1CCN(CC(=O)O)CCN(CC(=O)*)CCN(CC(=O)O)CC1; γGlu = O=C(O)[C@H](CCC(=O)[*:2])N[*:1]; 2Nal = N[C@@H](Cc1ccc2ccccc2c1)C(=O)O; Palmitoyl = CCCCCCCCCCCCCCCC(=O)*; αMeI = CC[C@H](C)[C@](C)(N)C(=O)O; Chg = N[C@H](C(=O)O)C1CCCCC1; NMeNle = CCCC[C@H](NC)C(=O)O; ξαMeD = CC(N)(CC(=O)O)C(=O)O; Orn = NCCC[C@H](N)C(=O)O; Ahx = NCCCCCC(=O)O
Key:
[1] = tested on: SHP-77 tumors; assay: Ex vivo biodistribution of radiolabeled peptides in nude mice bearing SHP-77 tumors; conditions: [177Lu]Lu labelling, nude mice bearing SHP-77 tumors (n = 3), 24 hours post-injection
Procedure: Mice were intravenously injected (via the lateral tail vein) with a bolus dose of the radiolabeled peptides for ex vivo biodistribution studies when tumor volumes were in range of 200-400 mm^3 for xenograft mice and when age of the mice was 5-7 weeks for tumor naïve mice studies. To assess the amount of radionuclide injected into individual mice the syringe was assayed in a dose calibrator before and after injection for [^177Lu]Lu-peptide.
Mice were euthanized at pre-determined time points and selected tissues were resected and collected into pre-weighed tubes. The tubes were then reweighed post resection, the difference giving the weight of each tissue. Radioactivity in each tissue was measured using a gamma counter. Counts were decay corrected to the time of injection and percentage of injected activity per gram (% IA/g) was calculated for each tissue based on the injected activity into each individual mouse. Injected activity was converted to counts based on the sensitivity of the gamma counter. The counts in tissue were then converted to the percentage of injected activity and this was divided by the mass of tissue to give % IA/g.

[2] = molecular target: T1, human DLL3 (Homo sapiens, UniProt Q9NYJ7); assay: Affinity determination by Surface Plasmon Resonance (SPR); format: binding; conditions: 25° C., biotinylated human DLL3 immobilized on streptavidin sensor chip, 1:1 binding model; read-out: SPR KD
T1 sequence (Q9NYJ7 27-618): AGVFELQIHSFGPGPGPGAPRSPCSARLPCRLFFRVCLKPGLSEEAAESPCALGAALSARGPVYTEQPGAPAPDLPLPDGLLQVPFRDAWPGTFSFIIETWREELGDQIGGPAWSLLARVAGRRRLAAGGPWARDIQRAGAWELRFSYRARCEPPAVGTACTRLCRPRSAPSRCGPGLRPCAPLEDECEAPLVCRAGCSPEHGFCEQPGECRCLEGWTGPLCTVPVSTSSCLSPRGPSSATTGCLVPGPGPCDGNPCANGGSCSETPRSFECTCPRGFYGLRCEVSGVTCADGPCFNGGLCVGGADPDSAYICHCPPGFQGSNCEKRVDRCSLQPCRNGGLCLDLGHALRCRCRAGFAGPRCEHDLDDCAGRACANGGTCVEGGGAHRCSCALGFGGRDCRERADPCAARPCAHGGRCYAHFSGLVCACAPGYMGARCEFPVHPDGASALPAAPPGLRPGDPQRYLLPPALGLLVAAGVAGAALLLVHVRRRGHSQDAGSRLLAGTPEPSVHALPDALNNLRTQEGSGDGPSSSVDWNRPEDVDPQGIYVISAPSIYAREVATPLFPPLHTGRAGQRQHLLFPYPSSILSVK
Method in brief: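 Kinetic and affinity constants were derived by fitting sensorgrams to a 1:1 binding model. Graded compound concentrations flowed at 100 μL/minute in 20 mM phosphate running buffer with 2% DMSO over streptavidin-immobilized biotinylated human DLL3, reference-subtracted.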

Compound	kidney uptake (% IA/g) [1]	tumor uptake (% IA/g) [1]	Kd [2]
CC[C@H](C)[C@H](NC(=O)[C@@H](NC(=O)[C@H](Cc1c[nH]c2ccccc12)NC(C)=O)[C@@H](C)O)C(=O)N[C@H]1CSSC[C@@H](C(=O)N[C@@H](Cc2c[nH]c3ccccc23)C(=O)N2CCC[C@H]2C(=O)N[C@H](CCCCNC(=O)CCCCCNC(=O)CN2CCN(CC(=O)O)CCN(CC(=O)O)CCN(CC(=O)O)CC2)C(N)=O)NC(=O)[C@H](CC(=O)O)NC(=O)[C@H](Cc2cnc[nH]2)NC(=O)[C@H](Cc2c[nH]c3ccccc23)NC(=O)[C@H](CC(N)=O)NC(=O)[C@H](CC(N)=O)NC1=O [compound 47, Ac-W-T-I-C(3)-N-N-W-H-D-C(3)-W-P-(D-Lys)-Ahx-DOTA-NH2] (Ac-WTICNNWHDCWP[dK]([Ahx-DOTA])-NH2; disulfide 4-10)	D (% IA/g > 10 in kidney)	A (0 < % IA/g ≤ 5 in tumor)	1 to 10 nM
CC[C@H](C)[C@H](NC(=O)[C@@H](NC(=O)[C@H](Cc1c[nH]c2ccccc12)NC(C)=O)[C@@H](C)O)C(=O)N[C@H]1CSSC[C@@H](C(=O)N[C@@H](Cc2c[nH]c3ccccc23)C(=O)N2CCC[C@H]2C(=O)N[C@H](CCCCNC(=O)COCCOCCOCCOCCOCCOCCOCCOCCNC(=O)[C@@H](CCCCNC(=O)CN2CCN(CC(=O)O)CCN(CC(=O)O)CCN(CC(=O)O)CC2)NC(=O)CCOCCOCCOCCOCCOCCOCCOCCOCCOCCOCCOCCOCCNC(=O)Cc2ccc(Br)cc2)C(N)=O)NC(=O)[C@H](CC(=O)O)NC(=O)[C@H](Cc2c[nH]cn2)NC(=O)[C@H](Cc2ccc3ccccc3c2)NC(=O)[C@H](CC(N)=O)NC(=O)[C@H](CC(N)=O)NC1=O [compound 252, Ac-W-T-I-C(3)-N-N-(2Nal)-H-D-C(3)-W-P-{D-Lys[PEG8-D-Lys(DOTA)-PEG12-COCH2Ph-4Br]}-NH2] (Ac-WTICNN[2Nal]HDCWP[dK](X1)-NH2; disulfide 4-10)	D (% IA/g > 10 in kidney)	A (0 < % IA/g ≤ 5 in tumor)	–
CC[C@H](C)[C@H](NC(=O)[C@@H](NC(=O)[C@H](Cc1c[nH]c2ccccc12)NC(C)=O)[C@@H](C)O)C(=O)N[C@H]1CSSC[C@@H](C(=O)N[C@@H](Cc2c[nH]c3ccccc23)C(=O)N2CCC[C@H]2C(=O)N[C@H](CCCCNC(=O)CN2CCN(CC(=O)O)CCN(CC(=O)O)CCN(CC(=O)O)CC2)C(=O)O)NC(=O)[C@H](CC(=O)O)NC(=O)[C@H](CCCN)NC(=O)[C@H](Cc2ccc3ccccc3c2)NC(=O)[C@H](CC(N)=O)NC(=O)[C@H](CC(N)=O)NC1=O [compound 376, Ac-W-T-I-C(3)-N-N-(2Nal)-Orn-D-C(3)-W-P-[D-Lys(DOTA)]-NH2] (Ac-WTICNN[2Nal][Orn]DCWP[dK](DOTA)-OH; disulfide 4-10)	–	–	< 1 nM
CC[C@H](C)[C@](C)(NC(=O)[C@@H](NC(=O)[C@H](Cc1c[nH]c2ccccc12)NC(C)=O)[C@@H](C)O)C(=O)N[C@H]1CSSC[C@@H](C(=O)N[C@@H](Cc2c[nH]c3ccccc23)C(=O)N2CCC[C@H]2C(=O)N[C@H](CCCCNC(=O)CN2CCN(CC(=O)O)CCN(CC(=O)O)CCN(CC(=O)O)CC2)C(N)=O)NC(=O)[C@H](CC(=O)O)NC(=O)[C@H](Cc2cnc[nH]2)NC(=O)[C@H](Cc2c[nH]c3ccccc23)NC(=O)[C@H](CC(N)=O)NC(=O)[C@H](CC(N)=O)NC1=O [compound 409, Ac-W-T-(aMe-I)-C(3)-N-N-W-H-D-C(3)-W-P-[D-Lys(DOTA)]-NH2] (Ac-WT[αMeI]CNNWHDCWP[dK](DOTA)-NH2; disulfide 4-10)	–	–	10 to 100 nM
CC[C@H](C)[C@H](NC(=O)[C@@H](NC(=O)[C@H](Cc1c[nH]c2ccccc12)NC(C)=O)[C@@H](C)O)C(=O)N[C@H]1CSSC[C@@H](C(=O)N[C@@H](Cc2c[nH]c3ccccc23)C(=O)N2CCC[C@H]2C(=O)N[C@H](CCCCNC(=O)CN2CCN(CC(=O)O)CCN(CC(=O)O)CCN(CC(=O)O)CC2)C(N)=O)NC(=O)C(C)(CC(=O)O)NC(=O)[C@H](Cc2cnc[nH]2)NC(=O)[C@H](Cc2c[nH]c3ccccc23)NC(=O)[C@H](CC(N)=O)NC(=O)[C@H](CC(N)=O)NC1=O (stereo partly drawn) [compound 410, Ac-W-T-I-C(3)-N-N-W-H-(aMe-D)-C(3)-W-P-[D-Lys(DOTA)]-NH2] (Ac-WTICNNWH[ξαMeD]CWP[dK](DOTA)-NH2; disulfide 4-10)	–	–	1 to 10 nM
CCCCCCCCCCCCCCCC(=O)N[C@@H](CCC(=O)NCCOCCOCCOCCOCCOCCOCCOCCOCCOCCOCCOCCOCCOCCOCCOCCOCCOCCOCCOCCOCCOCCOCCOCCOCCC(=O)NCCCC[C@@H]1NC(=O)[C@H](Cc2ccc3ccccc3c2)NC(=O)[C@H](CC(N)=O)NC(=O)[C@H](CC2CCNCC2)NC(=O)[C@@H](NC(=O)[C@@H](NC(=O)[C@@H](NC(=O)[C@H](Cc2c[nH]c3ccccc23)NC(C)=O)[C@@H](C)O)C2CCCCC2)CSSC[C@@H](C(=O)N[C@@H](Cc2c[nH]c3ccccc23)C(=O)N2CCC[C@H]2C(=O)N[C@H](CCCCNC(=O)CN2CCN(CC(=O)O)CCN(CC(=O)O)CCN(CC(=O)O)CC2)C(N)=O)NC(=O)[C@H](CC(=O)O)NC1=O)C(=O)O [compound 426, Ac-WT-(Chg)-C(3)-[3-(4-piperidinyl)-Ala]-N-(2Nal)-Lys(PEG24-[gE(C16)]-OH)-D-C(3)-W-P-[D-Lys(DOTA)]-NH2] (Ac-WT[Chg]C[Ala(piperidin-4-yl)]N[2Nal]K([PEG24-γGlu-Palmitoyl])DCWP[dK](DOTA)-NH2; disulfide 4-10)	–	–	1 to 10 nM
CCCCCCCCCCCCCCCC(=O)N[C@@H](CCC(=O)NCCOCCOCCOCCOCCOCCOCCOCCOCCOCCOCCOCCOCCOCCOCCOCCOCCOCCOCCOCCOCCOCCOCCOCCOCCC(=O)NCCCC[C@@H]1NC(=O)[C@H](Cc2ccc3ccccc3c2)NC(=O)[C@H](CC(N)=O)NC(=O)[C@H](CC2CCNCC2)NC(=O)[C@@H](NC(=O)[C@H](CCCC)N(C)C(=O)[C@@H](NC(=O)[C@H](Cc2c[nH]c3ccccc23)NC(C)=O)[C@@H](C)O)CSSC[C@@H](C(=O)N[C@@H](Cc2c[nH]c3ccccc23)C(=O)N2CCC[C@H]2C(=O)N[C@H](CCCCNC(=O)CN2CCN(CC(=O)O)CCN(CC(=O)O)CCN(CC(=O)O)CC2)C(N)=O)NC(=O)[C@H](CC(=O)O)NC1=O)C(=O)O [compound 427, Ac-W-T-(NMe-Nle)-C(3)-[3-(4-piperidinyl)-Ala]-N-(2Nal)-Lys(PEG24-[gE(C16)]-OH)-D-C(3)-W-P-[D-Lys(DOTA)]-NH2] (Ac-WT[NMeNle]C[Ala(piperidin-4-yl)]N[2Nal]K([PEG24-γGlu-Palmitoyl])DCWP[dK](DOTA)-NH2; disulfide 4-10)	–	–	10 to 100 nM
CC[C@H](C)[C@H](NC(=O)[C@@H](NC(=O)[C@H](Cc1c[nH]c2ccccc12)NC(C)=O)[C@@H](C)O)C(=O)N[C@H]1CSSC[C@@H](C(=O)N[C@@H](Cc2c[nH]c3ccccc23)C(=O)N2CCC[C@H]2C(=O)N[C@H](CCCCNC(=O)CN2CCN(CC(=O)O)CCN(CC(=O)O)CCN(CC(=O)O)CC2)C(N)=O)NC(=O)[C@H](CC(=O)O)NC(=O)[C@H](Cc2cnc[nH]2)NC(=O)[C@H](Cc2ccc3ccccc3c2)NC(=O)[C@H](CC(N)=O)NC(=O)[C@H](CCCCN)NC1=O [compound 451, Ac-W-T-I-C(3)-K-N-(2Nal)-H-D-C(3)-W-P-[D-Lys(DOTA)]-CONH2] (Ac-WTICKN[2Nal]HDCWP[dK](DOTA)-NH2; disulfide 4-10)	D (% IA/g > 10 in kidney)	A (0 < % IA/g ≤ 5 in tumor)	–
Ac-W-T-I-C(3)-N-N-(2Nal)-(4Pya)-D-C(3)-W-P-[D-Lys(DOTA)]-NH2 [compound 367]	–	–	< 1 nM

— patent US20250011368A1, “DLL3 TARGETING PEPTIDES AND CONSTRUCTS THEREOF” (MARIANA ONCOLOGY INC., priority 2023, published 2025)
